Laboratory results reported in article PMC8400033, “A Multicomponent Protocol for the Synthesis of Highly Functionalized γ-Lactam Derivatives and Their Applications as Antiproliferative Agents” (Pharmaceuticals, 2021).
Read-outs that look alike come from different tables or passages of the source.

Columns and labels:
[1] = tested on: SKOV3 (human ovarian carcinoma); experiment: CCK-8 antiproliferative assay, SKOV3 cell line
Method: (§1) In vitro cytotoxicity of the γ-lactam derivatives was evaluated by testing their antiproliferative activities against several human cancer cell lines. Cell counting kit (CCK-8) assay was used for the evaluation of growth inhibition.
(§2) All stock solutions of the investigated compounds were prepared by dissolving the powdered materials in appropriate amounts of DMSO. The final concentration of DMSO never exceeded 5% (v/v) in reactions. The stock solution was stored at 5 °C until it was used.
(§3) All were supplemented with 10% of fetal bovine serum (FBS) (Sigma-Aldrich, Madrid, Spain) and with 1% of NORMOCIN solution (Thermo Fisher, Waltham, Massachusetts, MA, USA). […] For cytotoxicity experiments, A549 cells were seeded in 96-well plates at a density of 2.5–3 × 10^3 cells per well and incubated overnight to achieve 70% of confluence at the time of exposition to the cytotoxic compound.

[2] = tested on: A549 (carcinomic human alveolar basal epithelial cell); experiment: CCK-8 antiproliferative assay, A549 cell line; format: cell-based
Method: as §1, §2, §3
(§4) Both were supplemented with 10% of fetal bovine serum (FBS) (Sigma-Aldrich, Spain) and with 1% of NORMOCIN solution (Thermo Fisher, Waltham, Massachusetts, MA, USA). […] For cytotoxicity experiments, A549 cells were seeded in 96-well plates at a density of 2.5–3 × 10^3 cells per well and incubated overnight to achieve 70% of confluence at the time of exposition to the cytotoxic compound.

[3] = tested on: MRC5 non-malignant lung fibroblasts; experiment: CCK-8 assay on non-malignant cells for selective toxicity; format: cell-based; conditions: Homo sapiens
Method: as §1, §2, §3, §4

[4] = tested on: RKO (human colon epithelial carcinoma); experiment: CCK-8 antiproliferative assay, RKO cell line; format: cell-based
Method: as §1, §2, §3

[5] = Homo sapiens, SK-OV-3, read-out: IC50 SKOV3, SKOV3 cell line, CCK-8
[6] = Homo sapiens, A549, A549 cell line, CCK-8, read-out: IC50 A549
[7] = MRC5 non-malignant lung fibroblasts, CCK-8, read-out: IC50 MRC5
[8] = Homo sapiens, SK-OV-3, read-out: IC50 SKOV3
[9] = Homo sapiens, A549, read-out: IC50 A549
[10] = Homo sapiens, A549, read-out: IC50 of individual enantiomers of 4v

| SMILES | IC50 [1, 5] [µM] | IC50 [2, 6] [µM] | IC50 [3, 7] [µM] | also measured |
| --- | --- | --- | --- | --- |
| CCOC(=O)[C@]1(C)C[C@@H](Nc2ccc(C)cc2)C(=O)N1c1ccc(C)cc1 (relative stereo) [compound 17, Ethyl (2S*, 4R*)-2-methyl-5-oxo-1-(p-tolyl)-4-(p-tolylamino)-pyrrolidine-2-carboxylate] | > 50 | > 50 | – | melting point: 173 to 174 °C |
| Cc1ccc(NC2=CCN(c3ccc(C)cc3)C2=O)cc1 [4a, 1-(p-Tolyl)-3-(p-tolylamino)-1,5-dihydro-2H-pyrrol-2-one] | – | – | > 50 | melting point: 178 to 180 °C; Cytotoxic activity against SKOV3 cell line, in words [1]: did not show activity; IC50 [1, 8]: > 50 µM |
| Cc1ccc(NC2=CC(c3ccc(C)cc3)N(c3ccc(C)cc3)C2=O)cc1 (stereo not drawn) [4c] | > 50 | 21 ± 1.64 | > 50 | melting point: 210 to 213 °C |
| Cc1ccc(NC2=CC(c3cccc(C)c3)N(c3ccc(C)cc3)C2=O)cc1 (stereo not drawn) [4d] | > 50 | 31.2 ± 1.04 | > 50 | – |
| Cc1ccc(NC2=CC(c3ccccc3C)N(c3ccc(C)cc3)C2=O)cc1 (stereo not drawn) [4e] | > 50 | 41.3 ± 1.29 | > 50 | – |
| Cc1ccc(NC2=CC(c3ccc(F)cc3)N(c3ccc(C)cc3)C2=O)cc1 (stereo not drawn) [4f] | 23.5 ± 0.75 | 10.7 ± 1.21 | > 50 | – |
| Cc1ccc(NC2=CC(c3ccc([N+](=O)[O-])cc3)N(c3ccc(C)cc3)C2=O)cc1 (stereo not drawn) [4g] | 22.9 ± 0.63 | 17.1 ± 1.58 | 26.6 ± 2.89 | IC50 [4]: 23.8 ± 2.53 µM |
| Cc1ccc(NC2=CC(c3cccc([N+](=O)[O-])c3)N(c3ccc(C)cc3)C2=O)cc1 (stereo not drawn) [4h] | 27.7 ± 1.32 | 7.33 ± 0.57 | 27.2 ± 1.24 | – |
| Cc1ccc(NC2=CC(c3ccc(C(F)(F)F)cc3)N(c3ccc(C)cc3)C2=O)cc1 (stereo not drawn) [4i] | > 50 | > 50 | – | IC50 [4]: > 50 µM |
| Cc1ccc(NC2=CC(c3ccc4ccn(C)c4c3)N(c3ccc(C)cc3)C2=O)cc1 (stereo not drawn) [4j] | > 50 | 19.3 ± 0.7 | > 50 | – |
| Cc1ccc(NC2=CC(c3ccco3)N(c3ccc(C)cc3)C2=O)cc1 (stereo not drawn) [4k] | > 50 | 11.5 ± 0.85 | > 50 | – |
| Cc1ccc(NC2=CC(c3cccs3)N(c3ccc(C)cc3)C2=O)cc1 (stereo not drawn) [4l] | 12.7 ± 1.83 | 12.7 ± 1.07 | > 50 | – |
| Cc1ccc(NC2=CC(c3ccc4ccccc4c3)N(c3ccc(C)cc3)C2=O)cc1 (stereo not drawn) [4m] | 30.5 ± 1.34 | 12.1 ± 0.74 | 21.3 ± 0.74 | – |
| Cc1ccc(NC2=CC(C)N(c3ccc(C)cc3)C2=O)cc1 (stereo not drawn) [4n] | 29.2 ± 1 | 15.7 ± 0.92 | > 50 | – |
| Cc1ccc(NC2=CC(C(C)C)N(c3ccc(C)cc3)C2=O)cc1 (stereo not drawn) [4o] | > 50 | 11.1 ± 0.71 | > 50 | – |
| Cc1ccc(NC2=CC(/C=C/c3ccccc3)N(c3ccc(C)cc3)C2=O)cc1 (stereo not drawn) [4r] | ~10 | ~10 | 18.2 ± 0.81 | IC50 ([1]; read-out: IC50 SKOV3, SKOV3 cell line, CCK-8): 9.59 ± 0.82 µM; IC50 ([2]; A549 cell line, CCK-8, read-out: IC50 A549): 10.3 ± 0.8 µM |
| Cc1ccc(NC2=CC(c3c(F)c(F)c(F)c(F)c3F)N(c3ccc(C)cc3)C2=O)cc1 (stereo not drawn) [4t] | > 50 | 33.5 ± 1.68 | > 50 | IC50 [4]: > 50 µM |
| Cc1ccc(NC2=CC(C(F)(F)F)N(c3ccc(C)cc3)C2=O)cc1 (stereo not drawn) [4u] | > 50 | > 50 | – | IC50 [4]: > 50 µM |
| CCOP(=O)(CC1C=C(Nc2ccc(C)cc2)C(=O)N1c1ccc(C)cc1)OCC (stereo not drawn) [4v] | – | – | – | IC50 ([3]; MRC5, read-out: IC50 MRC5): > 50 µM; IC50 [4]: > 50 µM; IC50 [1, 8]: > 50 µM; IC50 [2, 9]: 11.3 ± 1.8 µM |
| Cc1ccc(NC2=CC(CP(=O)(c3ccccc3)c3ccccc3)N(c3ccc(C)cc3)C2=O)cc1 (stereo not drawn) [4w] | 10.8 ± 0.88 | 5.67 ± 0.9 | 30.1 ± 0.49 | IC50 [4]: 28.1 ± 1.47 µM |
| CC1=C(Nc2ccc(C)cc2)C(=O)N(c2ccc(C)cc2)C1c1ccc([N+](=O)[O-])cc1 (stereo not drawn) [5a] | > 50 | 2.05 ± 0.23 | > 50 | – |

| SMILES | IC50 [1, 5] [µM] | IC50 [2, 6] [µM] | IC50 [3, 7] [µM] | also measured |
| --- | --- | --- | --- | --- |
| Cc1ccc(NC2=C(Cc3ccccc3)C(c3ccc([N+](=O)[O-])cc3)N(c3ccc(C)cc3)C2=O)cc1 (stereo not drawn) [5b] | > 50 | 9.92 ± 1.15 | 47.6 ± 1.67 | – |
| COC(=O)C1=C(Nc2ccc(C)cc2)C(=O)N(c2ccc(C)cc2)C1c1ccccc1 (stereo not drawn) [5c] | – | – | > 50 | melting point: 179 to 181 °C |
| CCOP(=O)(OCC)C1=C(Nc2ccc(C)cc2)C(=O)N(c2ccc(C)cc2)C1 [5d] | – | – | – | IC50 ([3]; MRC5, read-out: IC50 MRC5): > 50 µM; IC50 [4]: > 50 µM; IC50 [1, 8]: > 50 µM; IC50 [2, 9]: > 50 µM |
| COc1ccc(NC2=CC(c3ccccc3)N(c3ccc(OC)cc3)C2=O)cc1 (stereo not drawn) [6a] | 6.84 ± 0.59 | 12 ± 1.96 | > 50 | – |
| COc1ccc(NC2=CC(c3ccc([N+](=O)[O-])cc3)N(c3ccc(OC)cc3)C2=O)cc1 (stereo not drawn) [6b] | > 50 | 31.5 ± 1.37 | > 50 | IC50 [4]: > 50 µM |
| CCOP(=O)(CC1C=C(Nc2ccc(OC)cc2)C(=O)N1c1ccc(OC)cc1)OCC (stereo not drawn) [6c] | – | – | – | IC50 ([3]; MRC5, read-out: IC50 MRC5): > 50 µM; Cytotoxic activity against SKOV3 cell line, in words [1]: did not show any cytotoxicity; IC50 [1, 8]: > 50 µM; IC50 [2, 9]: 6.84 ± 0.22 µM |
| O=C1C(Nc2ccc(Br)cc2)=CC(c2ccc([N+](=O)[O-])cc2)N1c1ccc(Br)cc1 (stereo not drawn) [8a] | > 50 | > 50 | – | – |
| O=C1C(Nc2ccc(Br)cc2)=CC(c2ccc(C(F)(F)F)cc2)N1c1ccc(Br)cc1 (stereo not drawn) [8b] | > 50 | > 50 | – | IC50 [4]: > 50 µM |
| O=C1C(Nc2cccc(C(F)(F)F)c2)=CC(c2ccc([N+](=O)[O-])cc2)N1c1cccc(C(F)(F)F)c1 (stereo not drawn) [11b] | 8.5 ± 0.54 | 2 ± 0.78 | 44.6 ± 1.16 | – |
| O=C1C(Nc2ccc3ccccc3n2)=CC(c2ccc([N+](=O)[O-])cc2)N1c1ccc2ccccc2n1 (stereo not drawn) [12a] | > 50 | 9.25 ± 1.49 | > 50 | Cytotoxic activity against SKOV3 cell line, in words [1]: No activity |
| Cc1ccc(N[C@@H]2C[C@H](C(F)(F)F)N(c3ccc(C)cc3)C2=O)cc1 [18a] | > 50 | 3.27 ± 0.65 | > 50 | – |
| CCOP(=O)(C[C@H]1C[C@@H](Nc2ccc(C)cc2)C(=O)N1c1ccc(C)cc1)OCC [18b] | – | – | – | IC50 ([3]; MRC5, read-out: IC50 MRC5): > 50 µM; IC50 [4]: > 50 µM; IC50 [1, 8]: > 50 µM; IC50 [2, 9]: 4.25 ± 0.65 µM |
| Cc1ccc(/N=C(/C=C/C=C/c2ccccc2)C(=O)Nc2ccc(C)cc2)cc1 [20a, (2Z, 3E, 5E)-6-Phenyl-N-(p-tolyl)-2-(p-tolylimino)hexa-3,5-dienamide] | > 50 | 6.9 ± 0.73 | > 50 | – |
| Cc1ccc(\N=C(/C=C/C=C/c2ccc(C(F)(F)F)cc2)C(=O)Nc2ccc(C)cc2)cc1 [20b] | > 50 | 9.77 ± 0.17 | > 50 | – |
| CCOP(=O)(C[C@H]1C=C(Nc2ccc(C)cc2)C(=O)N1c1ccc(C)cc1)OCC [(R)-4v] | – | – | – | IC50 [2, 10]: 9.23 ± 1.68 µM |
| CCOP(=O)(C[C@@H]1C=C(Nc2ccc(C)cc2)C(=O)N1c1ccc(C)cc1)OCC [(S)-4v] | – | – | – | IC50 [2, 10]: 10.5 ± 0.8 µM |
| COc1cccc2c1C(=O)c1c(O)c3c(c(O)c1C2=O)C[C@@](O)(C(=O)CO)C[C@@H]3O[C@H]1C[C@H](N)[C@H](O)[C@H](C)O1 [Doxorubicin, reference compound] | – | – | > 50 | – |
| O=C1C(Nc2ccc(Cl)cc2)=CC(c2ccc([N+](=O)[O-])cc2)N1c1ccc(Cl)cc1 (stereo not drawn) [compound 7] | > 50 | 17.2 ± 2.1 | > 50 | – |
| O=C1C(Nc2cccc(Cl)c2)=CC(c2ccc([N+](=O)[O-])cc2)N1c1cccc(Cl)c1 (stereo not drawn) [compound 9] | 16.1 ± 0.81 | 8.37 ± 1.27 | 23.8 ± 1.75 | – |
| O=C1C(Nc2ccccc2F)=CC(c2ccc([N+](=O)[O-])cc2)N1c1ccccc1F (stereo not drawn) [compound 10] | 5.55 ± 0.62 | 4.36 ± 0.51 | > 50 | – |
| CCOP(=O)(CC1=C(C)C(C)(Nc2ccc(C)cc2)C(=O)N1c1ccc(C)cc1)OCC (stereo not drawn) [compound 19, Diethyl ((3,4-dimethyl-5-oxo-1-(p-tolyl)-4-(p-tolylamino)-4,5-dihydro-1H-pyrrol-2-yl)methyl)phosphonate] | – | – | – | IC50 ([3]; MRC5, read-out: IC50 MRC5): > 50 µM; IC50 [4]: > 50 µM; IC50 [1, 8]: > 50 µM; IC50 [2, 9]: 3.65 ± 0.25 µM |
